Data: ChEMBL document CHEMBL3217532, “New analyses of MIC90 data to aid antibacterial drug discovery” (2011)
Converted amounts (≈) assume the structure as drawn.

Assays:
Assay type in all cases: functional
[1] = test system: Pseudomonas aeruginosa; assay: Antimicrobial activity against Pseudomonas aeruginosa 1951-00
[2] = test system: Pseudomonas aeruginosa; assay: Antimicrobial activity against Pseudomonas aeruginosa 1752-00
[3] = test system: Pseudomonas aeruginosa; assay: Antimicrobial activity against Pseudomonas aeruginosa 1753-00
[4] = test system: Pseudomonas aeruginosa; assay: Antimicrobial activity against Pseudomonas aeruginosa 1957-00
[5] = test system: Pseudomonas aeruginosa; assay: Antimicrobial activity against Pseudomonas aeruginosa 1569-05
[6] = test system: Pseudomonas aeruginosa; assay: Antimicrobial activity against Pseudomonas aeruginosa 1570-05
[7] = test system: Pseudomonas aeruginosa; assay: Antimicrobial activity against Pseudomonas aeruginosa 1613-09
[8] = test system: Pseudomonas aeruginosa; assay: Antimicrobial activity against Pseudomonas aeruginosa 1954-00
[9] = test system: Pseudomonas aeruginosa; assay: Antimicrobial activity against Pseudomonas aeruginosa PA-4624
[10] = test system: Pseudomonas aeruginosa; assay: Antimicrobial activity against Pseudomonas aeruginosa 1565-05
[11] = test system: Pseudomonas aeruginosa; assay: Antimicrobial activity against Pseudomonas aeruginosa 1566-05
[12] = test system: Pseudomonas aeruginosa; assay: Antimicrobial activity against Pseudomonas aeruginosa 1567-05
[13] = test system: Pseudomonas aeruginosa; assay: Antimicrobial activity against Pseudomonas aeruginosa 1568-05
[14] = test system: Pseudomonas aeruginosa; assay: Antimicrobial activity against Pseudomonas aeruginosa 1767-00
[15] = test system: Pseudomonas aeruginosa; assay: Antimicrobial activity against Pseudomonas aeruginosa 1768-00
[16] = test system: Pseudomonas aeruginosa; assay: Antimicrobial activity against Pseudomonas aeruginosa 1956-00
[17] = test system: Pseudomonas aeruginosa; assay: Antimicrobial activity against Pseudomonas aeruginosa PA-75
[18] = test system: Pseudomonas aeruginosa; assay: Antimicrobial activity against Pseudomonas aeruginosa 1955-00
[19] = test system: Pseudomonas aeruginosa; assay: Antimicrobial activity against Pseudomonas aeruginosa 1561-05
[20] = test system: Pseudomonas aeruginosa; assay: Antimicrobial activity against Pseudomonas aeruginosa 1563-00
[21] = test system: Pseudomonas aeruginosa; assay: Antimicrobial activity against Pseudomonas aeruginosa 1564-05
[22] = test system: Pseudomonas aeruginosa; assay: Antimicrobial activity against Pseudomonas aeruginosa 1615-09
[23] = test system: Pseudomonas aeruginosa; assay: Antimicrobial activity against Pseudomonas aeruginosa 1761-00
[24] = test system: Pseudomonas aeruginosa; assay: Antimicrobial activity against Pseudomonas aeruginosa 1764-00
[25] = test system: Pseudomonas aeruginosa; assay: Antimicrobial activity against Pseudomonas aeruginosa 1765-00
[26] = test system: Pseudomonas aeruginosa; assay: Antimicrobial activity against Pseudomonas aeruginosa 1766-00
[27] = test system: Pseudomonas aeruginosa; assay: Antimicrobial activity against Pseudomonas aeruginosa 1952-00
[28] = test system: Pseudomonas aeruginosa; assay: Antimicrobial activity against Pseudomonas aeruginosa 1953-00
[29] = test system: Pseudomonas aeruginosa; assay: Antimicrobial activity against Pseudomonas aeruginosa 1562-05
[30] = test system: Pseudomonas aeruginosa; assay: Antimicrobial activity against Pseudomonas aeruginosa 1611-09
[31] = test system: Pseudomonas aeruginosa; assay: Antimicrobial activity against Pseudomonas aeruginosa 1614-09
[32] = test system: Pseudomonas aeruginosa; assay: Antimicrobial activity against Pseudomonas aeruginosa 1619-08
[33] = test system: Pseudomonas aeruginosa; assay: Antimicrobial activity against Pseudomonas aeruginosa 1760-00
[34] = test system: Pseudomonas aeruginosa; assay: Antimicrobial activity against Pseudomonas aeruginosa PA-1757
[35] = test system: Pseudomonas aeruginosa; assay: Antimicrobial activity against Pseudomonas aeruginosa 1527-08
[36] = test system: Pseudomonas aeruginosa; assay: Antimicrobial activity against Pseudomonas aeruginosa PA-4991
[37] = test system: Pseudomonas aeruginosa; assay: Antimicrobial activity against Pseudomonas aeruginosa PA-4999
[38] = test system: Pseudomonas aeruginosa; assay: Antimicrobial activity against Pseudomonas aeruginosa 1612-09
[39] = test system: Pseudomonas aeruginosa; assay: Antimicrobial activity against Pseudomonas aeruginosa PA-4995
[40] = test system: Pseudomonas aeruginosa; assay: Antimicrobial activity against Pseudomonas aeruginosa 1513-08
[41] = test system: Pseudomonas aeruginosa; assay: Antimicrobial activity against Pseudomonas aeruginosa 1515-08
[42] = test system: Pseudomonas aeruginosa; assay: Antimicrobial activity against Pseudomonas aeruginosa PA-4990
[43] = test system: Pseudomonas aeruginosa; assay: Antimicrobial activity against Pseudomonas aeruginosa PA-4997
[44] = test system: Pseudomonas aeruginosa; assay: Antimicrobial activity against Pseudomonas aeruginosa 1523-08
[45] = test system: Pseudomonas aeruginosa; assay: Antimicrobial activity against Pseudomonas aeruginosa PA-4993
[46] = test system: Pseudomonas aeruginosa; assay: Antimicrobial activity against Pseudomonas aeruginosa 1509-08
[47] = test system: Pseudomonas aeruginosa; assay: Antimicrobial activity against Pseudomonas aeruginosa 1510-08
[48] = test system: Pseudomonas aeruginosa; assay: Antimicrobial activity against Pseudomonas aeruginosa 1512-08
[49] = test system: Pseudomonas aeruginosa; assay: Antimicrobial activity against Pseudomonas aeruginosa 1514-08
[50] = test system: Pseudomonas aeruginosa; assay: Antimicrobial activity against Pseudomonas aeruginosa 1521-08
[51] = test system: Pseudomonas aeruginosa; assay: Antimicrobial activity against Pseudomonas aeruginosa 1526-08

`C[C@H](O)Cn1c(-c2cc(=O)c(O)c[nH]2)nn(S(=O)(=O)NC(=O)N2C(=O)[C@@H](NC(=O)/C(=N\OC(C)(C)C(=O)O)c3csc(N)n3)[C@@H]2C)c1=O` showed an MIC90 [1] of 0.25 µg/mL (≈ 0.351 µM), an MIC90 [2] of 0.25 µg/mL (≈ 0.351 µM) and an MIC90 [3] of 0.5 µg/mL (≈ 0.702 µM). The MIC90 [4] was 0.06 µg/mL (≈ 0.0842 µM), the MIC90 [5] was 0.25 µg/mL (≈ 0.351 µM) and the MIC90 [6] was 0.125 µg/mL (≈ 0.175 µM). It also gave an MIC90 [7] of 0.25 µg/mL (≈ 0.351 µM), an MIC90 [8] of 0.03 µg/mL (≈ 0.0421 µM) and an MIC90 [9] of 0.5 µg/mL (≈ 0.702 µM). It also gave an MIC90 [10] of 0.25 µg/mL (≈ 0.351 µM), an MIC90 [11] of 0.125 µg/mL (≈ 0.175 µM) and an MIC90 [12] of 0.125 µg/mL (≈ 0.175 µM). For the same compound, the MIC90 [13] was 0.25 µg/mL (≈ 0.351 µM), the MIC90 [14] was 0.125 µg/mL (≈ 0.175 µM) and the MIC90 [15] was 0.06 µg/mL (≈ 0.0842 µM). It also gave an MIC90 [16] of 0.06 µg/mL (≈ 0.0842 µM), an MIC90 [17] of 0.25 µg/mL (≈ 0.351 µM) and an MIC90 [18] of 0.125 µg/mL (≈ 0.175 µM). The MIC90 [19] was 0.5 µg/mL (≈ 0.702 µM), the MIC90 [20] was 0.125 µg/mL (≈ 0.175 µM) and the MIC90 [21] was 0.125 µg/mL (≈ 0.175 µM). The MIC90 [22] was 0.25 µg/mL (≈ 0.351 µM), the MIC90 [23] was 0.5 µg/mL (≈ 0.702 µM) and the MIC90 [24] was 0.06 µg/mL (≈ 0.0842 µM). For the same compound, the MIC90 [25] was 0.5 µg/mL (≈ 0.702 µM), the MIC90 [26] was 1 µg/mL (≈ 1.4 µM) and the MIC90 [27] was 0.25 µg/mL (≈ 0.351 µM). The MIC90 [28] was 0.25 µg/mL (≈ 0.351 µM), the MIC90 [29] was 0.06 µg/mL (≈ 0.0842 µM) and the MIC90 [30] was 0.06 µg/mL (≈ 0.0842 µM). The MIC90 [31] was 0.25 µg/mL (≈ 0.351 µM), the MIC90 [32] was 0.03 µg/mL (≈ 0.0421 µM) and the MIC90 [33] was 0.5 µg/mL (≈ 0.702 µM). The MIC90 [34] was 4 µg/mL (≈ 5.61 µM), the MIC90 [35] was 0.25 µg/mL (≈ 0.351 µM) and the MIC90 [36] was 0.25 µg/mL (≈ 0.351 µM). For the same compound, the MIC90 [37] was 0.25 µg/mL (≈ 0.351 µM), the MIC90 [38] was 0.5 µg/mL (≈ 0.702 µM) and the MIC90 [39] was 0.06 µg/mL (≈ 0.0842 µM). For the same compound, the MIC90 [40] was 0.5 µg/mL (≈ 0.702 µM), the MIC90 [41] was 0.5 µg/mL (≈ 0.702 µM) and the MIC90 [42] was 0.125 µg/mL (≈ 0.175 µM). The MIC90 [43] was 0.25 µg/mL (≈ 0.351 µM), the MIC90 [44] was 0.25 µg/mL (≈ 0.351 µM) and the MIC90 [45] was 0.25 µg/mL (≈ 0.351 µM). It also gave an MIC90 [46] of 0.5 µg/mL (≈ 0.702 µM), an MIC90 [47] of 0.5 µg/mL (≈ 0.702 µM) and an MIC90 [48] of 0.25 µg/mL (≈ 0.351 µM). It also gave an MIC90 [49] of 0.5 µg/mL (≈ 0.702 µM), an MIC90 [50] of 0.5 µg/mL (≈ 0.702 µM) and an MIC90 [51] of 0.125 µg/mL (≈ 0.175 µM).
`C[C@H]1[C@H](NC(=O)/C(=N\OC(C)(C)C(=O)O)c2csc(N)n2)C(=O)N1C(=O)NS(=O)(=O)n1nc(-c2cc(=O)c(O)c[nH]2)n(C[C@@H](O)CO)c1=O` showed an MIC90 [1] of 0.125 µg/mL (≈ 0.172 µM), an MIC90 [2] of 0.125 µg/mL (≈ 0.172 µM) and an MIC90 [3] of 0.125 µg/mL (≈ 0.172 µM). For the same compound, the MIC90 [4] was 0.03 µg/mL (≈ 0.0412 µM), the MIC90 [5] was 0.25 µg/mL (≈ 0.343 µM) and the MIC90 [6] was 0.25 µg/mL (≈ 0.343 µM). It also gave an MIC90 [7] of 0.25 µg/mL (≈ 0.343 µM), an MIC90 [8] of 0.015 µg/mL (≈ 0.0206 µM) and an MIC90 [9] of 0.25 µg/mL (≈ 0.343 µM). It also gave an MIC90 [10] of 0.25 µg/mL (≈ 0.343 µM), an MIC90 [11] of 0.06 µg/mL (≈ 0.0823 µM) and an MIC90 [12] of 0.06 µg/mL (≈ 0.0823 µM). The MIC90 [13] was 0.125 µg/mL (≈ 0.172 µM), the MIC90 [14] was 0.06 µg/mL (≈ 0.0823 µM) and the MIC90 [15] was 0.06 µg/mL (≈ 0.0823 µM). It also gave an MIC90 [16] of 0.03 µg/mL (≈ 0.0412 µM), an MIC90 [17] of 0.25 µg/mL (≈ 0.343 µM) and an MIC90 [18] of 0.06 µg/mL (≈ 0.0823 µM). The MIC90 [19] was 0.5 µg/mL (≈ 0.686 µM), the MIC90 [20] was 0.06 µg/mL (≈ 0.0823 µM) and the MIC90 [21] was 0.06 µg/mL (≈ 0.0823 µM). For the same compound, the MIC90 [22] was 0.25 µg/mL (≈ 0.343 µM), the MIC90 [23] was 0.5 µg/mL (≈ 0.686 µM) and the MIC90 [24] was 0.06 µg/mL (≈ 0.0823 µM). For the same compound, the MIC90 [25] was 0.5 µg/mL (≈ 0.686 µM), the MIC90 [26] was 2 µg/mL (≈ 2.74 µM) and the MIC90 [27] was 0.125 µg/mL (≈ 0.172 µM). For the same compound, the MIC90 [28] was 0.25 µg/mL (≈ 0.343 µM), the MIC90 [29] was 0.06 µg/mL (≈ 0.0823 µM) and the MIC90 [30] was 0.03 µg/mL (≈ 0.0412 µM). For the same compound, the MIC90 [31] was 0.125 µg/mL (≈ 0.172 µM), the MIC90 [32] was 0.015 µg/mL (≈ 0.0206 µM) and the MIC90 [33] was 0.25 µg/mL (≈ 0.343 µM). For the same compound, the MIC90 [34] was 4 µg/mL (≈ 5.49 µM), the MIC90 [35] was 0.125 µg/mL (≈ 0.172 µM) and the MIC90 [36] was 0.125 µg/mL (≈ 0.172 µM). For the same compound, the MIC90 [37] was 0.125 µg/mL (≈ 0.172 µM), the MIC90 [38] was 0.25 µg/mL (≈ 0.343 µM) and the MIC90 [39] was 0.03 µg/mL (≈ 0.0412 µM). For the same compound, the MIC90 [40] was 0.25 µg/mL (≈ 0.343 µM), the MIC90 [41] was 0.125 µg/mL (≈ 0.172 µM) and the MIC90 [42] was 0.25 µg/mL (≈ 0.343 µM). It also gave an MIC90 [43] of 0.125 µg/mL (≈ 0.172 µM), an MIC90 [44] of 0.125 µg/mL (≈ 0.172 µM) and an MIC90 [45] of 0.03 µg/mL (≈ 0.0412 µM). For the same compound, the MIC90 [46] was 1 µg/mL (≈ 1.37 µM), the MIC90 [47] was 1 µg/mL (≈ 1.37 µM) and the MIC90 [48] was 0.125 µg/mL (≈ 0.172 µM). It also gave an MIC90 [49] of 0.25 µg/mL (≈ 0.343 µM), an MIC90 [50] of 0.5 µg/mL (≈ 0.686 µM) and an MIC90 [51] of 0.125 µg/mL (≈ 0.172 µM).
